Results as given in the supplement of paper PMC11061612.

Experiments:
Assay in all cases: Bliss excess, mean over the matrix (fraction); higher = more synergy
[1] = system: SUP-T1 (T-Lymphoblastic Leukemia)
Procedure, shortened: (§1)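 Cell lines grown in DMEM/F12 or RPMI with 10% FBS were plated in 1536-well plates and held 24 hours at 37°C, 5% CO2 before 72 hours of exposure to two-drug dose matrices, with DMSO typically at 0.2%. CellTiter-Glo 2.0 luminescence gave viability, which was converted to inhibition. Vehicle wells were set to 0 and blank wells to 1. Combination Emax is the second-highest inhibition in the matrix, and Bliss excess is the observed combination effect minus the expected EA + EB − EA·EB, where EA and EB are the single-agent effects.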

[2] = system: LU-139 (Small Cell Lung Carcinoma)
Procedure, shortened: as §1

[3] = system: HARA (Squamous Cell Lung Carcinoma)
Procedure, shortened: as §1

NCI-H28 (Mesothelioma) = system: NCI-H28 (Mesothelioma)
Procedure, shortened: as §1

[4] = system: PCI-30 (Head and Neck Carcinoma)
Procedure, shortened: as §1

[5] = system: EN (Endometrial Carcinoma)
Procedure, shortened: as §1

[6] = system: K5 (Thyroid Gland Carcinoma)
Procedure, shortened: as §1

[7] = system: NCI-H69 (Small Cell Lung Carcinoma)
Procedure, shortened: as §1

[8] = system: RPMI-6666 (Non-Cancerous)
Procedure, shortened: as §1

NB14 (Neuroblastoma) = system: NB14 (Neuroblastoma)
Procedure, shortened: as §1

[9] = system: RT-112 (Bladder Carcinoma)
Procedure, shortened: as §1

[10] = system: CAPAN-1 (Pancreatic Carcinoma)
Procedure, shortened: as §1

SH-4 (Melanoma) = system: SH-4 (Melanoma)
Procedure, shortened: as §1

Mewo (Melanoma) = system: Mewo (Melanoma)
Procedure, shortened: as §1

[11] = system: SK-OV-3 (Ovarian Carcinoma)
Procedure, shortened: as §1

[12] = system: RKO (Colorectal Carcinoma)
Procedure, shortened: as §1

[13] = system: LoVo (Colorectal Carcinoma)
Procedure, shortened: as §1

[14] = system: SW1271 (Small Cell Lung Carcinoma)
Procedure, shortened: as §1

[15] = system: CAL-54 (Kidney Carcinoma)
Procedure, shortened: as §1

[16] = system: OC-314 (Ovarian Carcinoma)
Procedure, shortened: as §1

SMILES	Bliss excess [1]	Bliss excess [2]	Bliss excess [3]	Bliss excess (NCI-H28 (Mesothelioma))	Bliss excess [4]	Bliss excess [5]	Bliss excess [6]	Bliss excess [7]	Bliss excess [8]	Bliss excess (NB14 (Neuroblastoma))	Bliss excess [9]	Bliss excess [10]	Bliss excess (SH-4 (Melanoma))	Bliss excess (Mewo (Melanoma))	Bliss excess [11]	Bliss excess [12]	Bliss excess [13]	Bliss excess [14]	Bliss excess [15]	Bliss excess [16]
CN(CCO)CC[C@H](CSc1ccccc1)Nc1ccc(S(=O)(=O)NC(=O)c2ccc(N3CCC([C@@H](O)c4ccccc4-c4ccc(Cl)cc4)CC3)cc2)cc1S(=O)(=O)C(F)(F)F [AZD4320] + C[C@@H](Nc1cc(F)cc(F)c1)c1cc(C(=O)N(C)C)cc2c(=O)cc(N3CCOCC3)oc12 [AZD8186] (first compound max 1 µM, 7x7, partner max 3 µM)	-0.0192	-0.0107	0.0233	0.0474	-0.0503	-0.0377	-0.0505	-0.0208	0.0298	0.0025	0.0735	-0.0107	-0.0042	0.0471	0.0008	-0.0164	0.0355	-0.0447	0.0533	0.0075
CN(CCO)CC[C@H](CSc1ccccc1)Nc1ccc(S(=O)(=O)NC(=O)c2ccc(N3CCC([C@@H](O)c4ccccc4-c4ccc(Cl)cc4)CC3)cc2)cc1S(=O)(=O)C(F)(F)F [AZD4320] + CC(=O)O[C@H]1C(=O)[C@@]2(C)[C@H]([C@H](OC(=O)c3ccccc3)[C@]3(O)C[C@H](OC(=O)[C@H](O)[C@@H](NC(=O)c4ccccc4)c4ccccc4)C(C)=C1C3(C)C)[C@]1(OC(C)=O)CO[C@@H]1C[C@@H]2O [Paclitaxel] (first compound max 1 µM, 7x7, partner max 3 µM)	-0.024	0.0242	0.0253	0.0394	0.177	0.068	0.0018	0.0089	0.017	0.0064	0.0111	0.0823	0.0813	0.0548	0.254	0.0012	-0.0406	0.108	-0.0202	0.0084
CN(CCO)CC[C@H](CSc1ccccc1)Nc1ccc(S(=O)(=O)NC(=O)c2ccc(N3CCC([C@@H](O)c4ccccc4-c4ccc(Cl)cc4)CC3)cc2)cc1S(=O)(=O)C(F)(F)F [AZD4320] + CS(=O)(=O)CCNCc1ccc(-c2ccc3ncnc(Nc4ccc(OCc5cccc(F)c5)c(Cl)c4)c3c2)o1 [Lapatinib] (first compound max 1 µM, 7x7, partner max 10 µM)	0.0226	0.0054	0.027	0.0075	0.0067	-0.0532	0.0213	0.0363	-0.0208	0.0356	0.0152	-0.021	-0.0411	-0.0386	-0.0007	0.0405	-0.0216	-0.0178	0.0171	0.0535
O=C(c1cc(Cc2n[nH]c(=O)c3ccccc23)ccc1F)N1CCN(C(=O)C2CC2)CC1 [Olaparib] + CC1(C)CCC(CN2CCN(c3ccc(C(=O)NS(=O)(=O)c4ccc(NCC5CCOCC5)c([N+](=O)[O-])c4)c(Oc4cnc5[nH]ccc5c4)c3)CC2)=C(c2ccc(Cl)cc2)C1 [Venetoclax] (first compound max 10 µM, 7x7, partner max 1 µM)	-0.0572	0.0408	-0.0206	-0.0273	-0.0425	-0.0025	-0.0388	0.158	0.134	0.0052	-0.0275	-0.0564	-0.0355	-0.0766	-0.0472	-0.0151	-0.038	-0.0258	-0.0496	-0.0124
C[C@@H]1COCCN1c1cc(C2([S@](C)(=N)=O)CC2)nc(-c2ccnc3[nH]ccc23)n1 [AZD6738] + Nc1ccn([C@@H]2O[C@H](CO)[C@@H](O)C2(F)F)c(=O)n1 [Gemcitabine] (first compound max 10 µM, 7x7, partner max 0.3 µM)	0.0041	0.0146	0.0343	0.0086	0.0539	0.0613	0.034	0.035	-0.034	0.04	0.147	-0.0254	-0.0029	0.0475	0.0331	-0.0088	-0.0243	0.004	0.0372	0.115
N#Cc1cnc(Nc2cc(NC[C@H]3CNCCO3)c(C(F)(F)F)cn2)cn1 [SRA737] + CCc1c2c(nc3ccc(O)cc13)-c1cc3c(c(=O)n1C2)COC(=O)[C@]3(O)CC [SN-38] (first compound max 10 µM, 7x7, partner max 0.3 µM)	-0.0989	-0.0305	-0.0628	-0.104	-0.0079	-0.0706	-0.043	0.0781	-0.0707	-0.0148	0.138	-0.0974	-0.111	0.022	-0.0464	-0.0398	-0.0227	-0.0752	-0.0693	-0.0056
Cc1c2c(nn1C)CSCc1cc(n(C)n1)CSc1cc(c3ccccc3c1)OCCCc1c(C(=O)O)n(C)c3c-2c(Cl)ccc13 [AZD5991] + Nc1ccn([C@@H]2O[C@H](CO)[C@@H](O)C2(F)F)c(=O)n1 [Gemcitabine] (first compound max 1 µM, 7x7, partner max 0.3 µM)	-0.0332	-0.0133	-0.0107	-0.061	-0.0531	-0.0535	-0.045	-0.0178	-0.0411	-0.0213	0.0012	-0.0092	-0.0246	-0.0395	-0.0401	-0.0368	-0.0693	-0.0354		-0.0084
